From patent US20260337187A1, “COMPOUNDS FOR TREATMENT OF INFLAMMATORY PROCESSES” (THORNE LIMITED, priority 2022, published 2026)
Where two headings read alike, the source gives them in different places.

Experiments:
Format in all cases: cell-based
[1] = system: human primary neutrophils; experiment: Neutrophil NETosis (PMA or pyocyanin triggered, extracellular DNA, Sytox Green); conditions: 3 hours (FIG. 3)
Description: The effect of 3 different concentrations (from left to right for each treatment: 100, 50 and 20 μM) of B2 is shown as % reduction compared to untreated control; average of 3 experiments.
Neutrophil NETosis: Neutrophil production of extracellular traps, NETosis, was measured on human primary neutrophils, isolated from fresh blood samples as described above or by Pancoll gradient centrifugation. Neutrophils in RPMI at 4×10^6 cells/ml were triggered to undergo NETosis in wells of a 96-well plate at a total cell number of 2×10^5 cells per well. The cells were treated for 3 hours with either the […] phorbol myristate acetate (100 nM PMA) or the bacterial product pyocyanin (at 10 μM). Extracellular DNA was measured by fluorometry using the dye Sytox™ Green and/or by fluorescence microscopy.
To investigate the effect of B2 on neutrophil NETosis, human primary neutrophils, isolated from fresh blood samples, were triggered to undergo NETosis (the expulsion of DNA in the environment) by treatment for 3 hours with either the […] phorbol myristate acetate (PMA) or the bacterial product pyocyanin. Extracellular DNA was measured by photometry using the dye Sytox™ Green.

[2] = system: Human primary coronary artery endothelial cells (HCAEC); experiment: Coronary artery endothelial cell cytokine release (TNFα triggered, cytokine array); conditions: 50 μM B2, TNFα
Description: Human primary coronary artery endothelial cells (HCAEC) were triggered to produce cytokines by the pro-inflammatory cytokine TNFα. The levels of 105 cytokines in the cell culture supernatant were measured by the R&D Systems Human XL cytokine array and a fluorescence-based photometric read-out. The table lists cytokines whose production was reduced by >50% (left) or 20 to 50% upon treatment with 50 μM B2 (right).

primary human mast cells = experiment: Mast cell cytokine release (cytokine array); conditions: 100 μM B2, 24 h, IgE/anti-IgE
Description: FIG. 8 is a plot showing average relative intensity of cytokine levels relative to control showing the modulation of mast cell cytokine release by B2. Average of 3 experiments.
Mast cell cytokine release: Primary human mast cells developed in culture from CD34+ precursors as described above in relation to mast cell degranulation were stimulated at a cell density of 0.8×10^6 cells/ml by 0.12 mg/ml IgE and 0.1 μg/ml anti-IgE in mast cell medium (StemSpan SFEM including 100 ng/ml SCF, 50 ng/ml IL6, 2 & FBS, and 1% Pen/Strep). Simultaneously, the cells were treated with 100 μM B2, and cytokine levels present in the culture supernatants were measured after 24 h. The levels of 105 cytokines were measured by the R&D Systems Human XL cytokine array as per manufacturer's instructions. The signals were measured by a fluorescence-based photometric read-out in the Li—COR Odyssey Fluorescent imaging system, and the spots quantified by Fiji software.
To investigate the modulation of mast cell cytokine release by B2, primary human mast cells were stimulated by IgE/anti-IgE, treated with 100 μM B2, and cytokine levels present in the culture supernatants measured after 24 h. The levels of 105 cytokines were measured by the R&D Systems Human XL cytokine array and a fluorescence-based photometric read-out.

primary human B cells = experiment: B lymphocyte IgE production (frequency of IgE+ B lymphocytes by FACS)
Description: B2 was applied at 3 different concentrations, from left to right: 50, 20 and 10 μM. Average of >10 experiments is shown.
B lymphocyte IgE production: B lymphocyte IgE production was measured in line with that previously described by Audzevich et al. (2013). Briefly, primary human B cells isolated by the MACSxpress Buffy Coat Pan B Cell Isolation Kit (Miltenyi Biotec) from buffy coat were stimulated for 6 days by recombinant hCD40L (100 μg/ml) and IL-4 (50 ng/ml) at a cell density of 5×10^4 cells/ml. The frequency of IgE+B lymphocytes was determined by FACS at day 6 using anti CD19 and anti IgE antibodies.
To investigate inhibition of B lymphocyte IgE production by B2, the frequency of IgE+B lymphocytes was determined by FACS at day 6 of primary human B cell cultures isolated from fresh buffy coat and stimulated by CD40L and IL4.

human primary mast cells = experiment: Mast cell degranulation (Lamp-1/CD107a by FACS); conditions: IgE/anti-IgE; FIG. 6 (100, 50, 20 μM)
Description: Three different concentrations of B2 were tested (from left to right: 100, 50 and 20 μM) and the average of 11 experiments is shown as % reduction in degranulation (left plot). Degranulation was also measured at 3 time points (from left to right: 30, 15 and 5 minutes) after addition of 100 μM B2 (right plot).
Mast cell degranulation: Human primary mast cells were developed in StemSpan™ SFEM including 125 ng/ml SCF and 20 ng/ml IL3 from CD34+ hematopoietic precursor cells, and their purity after 4 to 5 weeks measured by FACS for c-kit and FceRI expression. This was measured by FACS using the appearance of Lamp-1 (CD107a) in line with that previously described by Klewer et al. (2021), applied here to human primary mast cells. Degranulation was triggered by preincubation of mast cells overnight with 1.3 μg/ml IgE followed by treatment with 0.2 μg/ml anti-IgE for 30 min.
To investigate the inhibition of mast cell degranulation by B2, degranulation was measured by FACS using the appearance of Lamp-1 (CD107a) on the surface of human primary mast cells upon degranulation. Degranulation was triggered by IgE/anti-IgE and B2 was applied 30 minutes before adding IgE. Three different concentrations of B2 were tested; from left to right in FIG. 6 (left plot): 100, 50 and 20 μM. […] Degranulation was also measured at 3 time points after addition of 100 μM B2 (FIG. 6, right plot).

With Cc1onc(-c2ccccc2Cl)c1C(=O)Nc1nc2ccc([N+](=O)[O-])cc2s1 [B2, 3-(2-chlorophenyl)-5-methyl-N-(6-nitrobenzo[d]thiazol-2-yl)isoxazole-4-carboxamide] the “neutrophil NETosis” value [1] was “substantially reduced”, the inhibition at 50 µM ([2]; read-out: CCL5 production, inhibition) was 20 to 50% and the inhibition at 50 µM ([2]; read-out: CXCL1 production, inhibition) was 20 to 50%. For the same compound, the inhibition at 50 µM ([2]; read-out: CXCL5 production, inhibition) was > 50%, the inhibition at 50 µM ([2]; read-out: CXCL10 production, inhibition) was > 50% and the inhibition at 50 µM ([2]; read-out: CXCL11 production, inhibition) was > 50%. For the same compound, the inhibition at 50 µM ([2]; read-out: GM-CSF production, inhibition) was 20 to 50%, the inhibition at 50 µM ([2]; read-out: ICAM1 production, inhibition) was 20 to 50% and the inhibition at 50 µM ([2]; read-out: IGFBP2 production, inhibition) was > 50%. The inhibition at 50 µM ([2]; read-out: Thrombospondin-1 production, inhibition) was > 50%, the inhibition at 50 µM ([2]; read-out: VCAM1 production, inhibition) was > 50% and the “mast cell cytokine release profile” value (primary human mast cells) was “reducing specific pro-inflammatory cytokines”. For the same compound, the “toxicity in B lymphocyte culture” value (primary human B cells; 50 μM B2, day 6) was “some toxicity was observed”, the “IgE production by primary human peripheral blood B lymphocytes” value (primary human B cells; CD40L and IL4, day 6, FIG. 5 (50, 20, 10 μM)) was “inhibits IgE production” and the “toxicity in B lymphocyte culture” value (primary human B cells; lower concentrations than 50 μM (20 and 10 μM), day 6) was “not observed”. The “IgE-mediated mast cell degranulation” value (human primary mast cells) was “inhibited by B2 in IgE-mediated degranulation”.
